Assay results from patent US12673017B2, “Ultra-mild, concentrated and self-preserving cleansing compositions for personal care” (GALAXY SURFACTANTS LTD, priority 2022, dated 2026).

Test system: blood capillaries of chorioallantoic membrane of hen's fertilized egg
Experiment: HET-CAM test (hen's egg test on chorioallantoic membrane, Invittox protocol 47)
Design: species or system White Leghorn chicken
Details: for Irritancy Score by HET-CAM: Table 2, individual surfactants
Source text: The HET-CAM (Hen's egg test on chorioallantoic membrane, as per Invittox Protocol 47) method. The hen's egg test on Chorioallantoic Membrane (HET-CAM) is an alternative in-vitro method developed by Luepke et al. to substitute Draize test that was done on rabbits. (Luepke N. Hen's egg chorioallantoic membrane test for irritation potential. Food Chem Toxicol. 1985; 23(2):287-291). It is subsequently modified by […] et al. ([…] Test. The […]. Databank of in-vitro techniques. […] Subsequently, the methodology is successfully adopted to personal care by […] et al. ([…], Bracher M, Courtellemont P, de Silva O. The HET-CAM, a useful in vitro assay for assessing the eye irritation properties of cosmetic formulations and ingredients. Toxicol. […] The egg's shell is opened at the side of the air chamber, and the egg white membrane is removed while avoiding any damage to the fine blood vessels. […] Based on Irritation score the damaging potential is classified into four categories as described in the table 1 below. White Leghorn chicken eggs (up to 9 days of incubation) are candled to ensure that all are viable. Egg shell is marked using a rotating dentist-sawblade and the section of the shell is removed. The membrane is carefully moistened with 0.9% NaCl solution and the eggs are replaced in incubator until ready for assaying. […] Onset of haemorrhage (Bleedings), vascular lysis (Blood vessel disintegration), coagulation (protein denaturation intra and extra vascular) is monitored. The onset of the biological endpoints is recorded in number of seconds and the irritancy scores are calculated as per formula prescribed in the protocol document. The irritancy score is broadly divided into four different categories of damaging potential as described in Table 1.

“Lauramido propyl PG dimonium chloride phosphate” was tested, and the “Irritancy Score by HET-CAM” value (1% test solution) was 8.0.
In the case of Lauryl glucoside, the “Irritancy Score by HET-CAM” value (1% test solution) was 6.5.
“Cocamidopropyl PG dimonium chloride phosphate” was tested, and the “Irritancy Score by HET-CAM” value (1% test solution) was 7.5.
In the case of Cocamido propyl sulphobetaine, the “Irritancy Score by HET-CAM” value (1% test solution) was 10.
In the case of `CCCCCCCCCCCCOS(=O)(=O)[O-].[Na+]` [Sodium lauryl sulphate], the “Irritancy score (IS) by HET-CAM” value was “around 16”, the “Irritancy Score by HET-CAM” value (1% test solution) was 16.7 and the “C, calculated coagulation part of IS” value (Table 3b) was 5.0. The “H, calculated haemorrhage part of IS” value (Table 3b) was 4.5, the “IS (irritation score)” value (Table 3b) was 15.1 and the “L, calculated lysis part of IS” value (Table 3b) was 5.6. For the same molecule, the “C, time for appearance of coagulation” value (Table 3b, 1% test solution) was 134 s, the “H, time for appearance of haemorrhage” value (Table 3b, 1% test solution) was 31 s and the “L, time for appearance of lysis” value (Table 3b, 1% test solution) was 63 s. The “C, time for appearance of coagulation” value (Table 6a) was 134 s, the “Calculation C” value (Table 6a) was 5.0 and the “Calculation H” value (Table 6a) was 4.5. The “Calculation L” value (Table 6a) was 5.6, the “H, time for appearance of haemorrhage” value (Table 6a) was 31 s and the “IS (irritation score)” value (Table 6a) was 15.1. For the same molecule, the “L, time for appearance of lysis” value (Table 6a) was 63 s, the “C, calculated coagulation part of score” value (Table 12) was 5.0 and the “C, time for appearance of coagulation” value (Table 12) was 134 s. The “H, calculated haemorrhage part of score” value (Table 12) was 4.5, the “H, time for appearance of haemorrhage” value (Table 12) was 31 s and the Irritancy score (Table 12) was 15.1. For the same molecule, the “L, calculated lysis part of score” value (Table 12) was 5.6 and the “L, time for appearance of lysis” value (Table 12) was 63 s.
Caprylyl/capryl glucoside was tested, and the “Irritancy Score by HET-CAM” value (1% test solution) was 8.
In the case of Cocomido propyl betaine, the “Irritancy Score by HET-CAM” value (1% test solution) was 10.8.
